The record followed here is patent US20250230193A1, “CYCLIC COMPOUND HAVING SELECTIVE KRAS INHIBITORY EFFECT ON HRAS AND NRAS” (CHUGAI SEIYAKU KABUSHIKI KAISHA, priority 2022, published 2025).

Molecules are shown by their SMILES. *1 amine or outer side, *2 acyl side, *3 side chain or, on linkers, in order; H or OH if unused. Where a SMILES comes first, the peptide text is derived from it. Bridges are numbered along the chain shown (N, C = ends). [ ]: non-standard residue; d: D form. The star is where a group is joined. hPhe(3,5-F2-4-CF3) = N[C@@H](CCc1cc(F)c(C(F)(F)F)c(F)c1)C(=O)O; hPhe(3-Cl-4-CF3) = N[C@@H](CCc1ccc(C(F)(F)F)c(Cl)c1)C(=O)O; X47 = O=C([C@H](Cc1ccc(C(F)(F)F)cc1)N(CCCF)[*:1])[*:2]; NPrPhe(4-CF3) = CCCN[C@@H](Cc1ccc(C(F)(F)F)cc1)C(=O)O; NMeGly(cPent) = CN[C@H](C(=O)O)C1CCCC1; Pro(4,4-F2) = O=C(O)[C@@H]1CC(F)(F)CN1; Pro(4,4-Me2) = CC1(C)CN[C@H](C(=O)O)C1; NMeD = CN[C@@H](CC(=O)O)C(=O)O; NMeL = CN[C@@H](CC(C)C)C(=O)O; αMeL = CC(C)C[C@](C)(N)C(=O)O; Morpholide = C1CN(*)CCO1; NMeA = CN[C@@H](C)C(=O)O; Ac5c = NC1(C(=O)O)CCCC1; Aze = O=C(O)[C@@H]1CCN1; Sar = CNCC(=O)O

The target of experiment [1] is GDP-bound NRAS wild-type protein (Homo sapiens, UniProt P01111). The experiment can be described thus: Binding to NRAS by surface plasmon resonance (SPR), Single Cycle Kinetics. In general terms: In SPR one partner is held on a chip, and binding of the other changes the refractive index at the surface.
GDP-bound NRAS wild-type protein, sequence (P01111 whole entry): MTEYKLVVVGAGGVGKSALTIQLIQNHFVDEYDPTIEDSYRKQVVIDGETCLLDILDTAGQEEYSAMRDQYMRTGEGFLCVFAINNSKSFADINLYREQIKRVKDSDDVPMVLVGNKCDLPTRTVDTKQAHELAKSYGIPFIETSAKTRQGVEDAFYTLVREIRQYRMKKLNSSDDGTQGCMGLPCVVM
Experiment [2] addresses GDP-bound HRAS wild-type protein (Homo sapiens, UniProt P01112). As to the kind of experiment: Binding to HRAS by surface plasmon resonance (SPR), Single Cycle Kinetics.
Setting [3] is: KD ratio NRAS/KRAS, class symbols.
The mark [4] stands for this setting: KD ratio HRAS/KRAS, class symbols.

GDP-bound HRAS wild-type protein, sequence (P01112 whole entry): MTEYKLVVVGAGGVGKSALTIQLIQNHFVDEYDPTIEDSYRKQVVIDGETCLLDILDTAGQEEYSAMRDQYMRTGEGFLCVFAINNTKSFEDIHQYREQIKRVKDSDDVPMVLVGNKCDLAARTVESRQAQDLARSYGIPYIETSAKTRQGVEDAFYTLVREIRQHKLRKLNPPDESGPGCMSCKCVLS

In the case of `CCCN1C(=O)[C@@H]2CCN2C(=O)CN(C)C(=O)[C@H]([C@@H](C)CC)NC(=O)[C@H](CC(C)C)N(C)C(=O)C[C@@H](C(=O)N(C)C)NC(=O)[C@H](C2CCCC2)N(C)C(=O)C2(CCCC2)NC(=O)[C@@H]2CC(F)(F)CN2C(=O)[C@H](CCc2ccc(C(F)(F)F)c(Cl)c2)NC(=O)CN(C)C(=O)[C@@H]1Cc1ccc(C(F)(F)F)cc1` [PP0387] ([NMeL]I[Sar][Aze][NPrPhe(4-CF3)][Sar][hPhe(3-Cl-4-CF3)][Pro(4,4-F2)][Ac5c][NMeGly(cPent)]D-NMe2; lactam N-11), the “NRAS/KRAS (ratio of KD for GDP-bound NRAS wild-type to KD for KRAS)” value in experiment [1] (KD ratio NRAS/KRAS, SPR) is “C (A compound having a KD ratio of 0.1 or more and less than 3 is denoted as C)”. Besides, the “HRAS/KRAS (ratio of KD for GDP-bound HRAS wild-type to KD for KRAS)” value in experiment [2] (KD ratio HRAS/KRAS, SPR) was “B (a compound having 3 or more and less than 10 is denoted as B)”.
For the compound `CC[C@H](C)[C@@H]1NC(=O)[C@H](CC(C)C)N(C)C(=O)C[C@@H](C(=O)N(C)C)N(C)C(=O)[C@H](C2CCCC2)N(C)C(=O)C2(CCCC2)NC(=O)[C@@H]2CCCN2C(=O)[C@H](CCc2cc(F)c(C(F)(F)F)c(F)c2)NC(=O)CN(C)C(=O)[C@H](Cc2ccc(C(F)(F)F)cc2)N2CCCC[C@@H](C2=O)N(C)C(=O)CN(C)C1=O` [PP0569], the “NRAS/KRAS (ratio of KD value with respect to GDP-bound NRAS wild-type protein to KD value with respect to KRAS)” value in experiment [1] (KD ratio NRAS/KRAS, SPR) was “C (A compound having a KD ratio of 0.1 or more and less than 3 is denoted as C)”. Moreover, the “HRAS/KRAS (ratio of KD value with respect to GDP-bound HRAS wild-type protein to KD value with respect to KRAS)” value in experiment [2] (KD ratio HRAS/KRAS, SPR) is “B (a compound having 3 or more and less than 10 is denoted as B)”.
On to `CC[C@H](C)[C@@H]1NC(=O)[C@H](CC(C)C)N(C)C(=O)C[C@@H](C(=O)N(C)C)N(C)C(=O)[C@H](C2CCCC2)N(C)C(=O)C2(CCCC2)NC(=O)[C@@H]2CC(F)(F)CN2C(=O)[C@H](CCc2cc(F)c(C(F)(F)F)c(F)c2)NC(=O)CN(C)C(=O)[C@H](Cc2ccc(C(F)(F)F)cc2)N2CCCC[C@@H](C2=O)N(C)C(=O)CN(C)C1=O` [PP0576], for which the “NRAS/KRAS (ratio of KD value with respect to GDP-bound NRAS wild-type protein to KD value with respect to KRAS)” value in experiment [1] (KD ratio NRAS/KRAS, SPR) was “C (A compound having a KD ratio of 0.1 or more and less than 3 is denoted as C)”. For the same compound, the “HRAS/KRAS (ratio of KD value with respect to GDP-bound HRAS wild-type protein to KD value with respect to KRAS)” value in experiment [2] (KD ratio HRAS/KRAS, SPR) is “B (a compound having 3 or more and less than 10 is denoted as B)”.
`CCO[C@@H]1C[C@H]2C(=O)NC3(CC(C)(C)C3)C(=O)N(C)[C@@H](C3CCCC3)C(=O)N(C)[C@H](C(=O)N(C)CC)CC(=O)N(C)[C@H]3CCCC/C=C/c4ccc(cc4)C[C@@H](C(=O)N(C)CC(=O)N[C@@H](CCc4ccc(Cl)c(Cl)c4)C(=O)N2C1)N1CC/C=C\C[C@@H](C1=O)N(C)C(=O)CN(C)C(=O)[C@H]([C@@H](C)CC)NC3=O` [PP2592]: in experiment [1] (setting [3]), the “NRAS/KRAS (ratio of KD value with respect to GDP-bound NRAS wild-type protein to KD value with respect to KRAS)” value was “A (a compound having 10 or more and less than 20 is denoted as A)”. Moreover, the “HRAS/KRAS (ratio of KD value with respect to GDP-bound HRAS wild-type protein to KD value with respect to KRAS)” value in experiment [2] (setting [4]) is “A (a compound having 10 or more and less than 20 is denoted as A)”.
With `CCCN1C(=O)CN(C)C(=O)CNC(=O)[C@H]([C@@H](C)CC)NC(=O)[C@H](CC(C)C)N(C)C(=O)C[C@@H](C(=O)N2CCOCC2)N(C)C(=O)[C@H](C2CCCC2)N(C)C(=O)C2(CCCC2)NC(=O)[C@@H]2CC(C)(C)CN2C(=O)[C@H](CCc2ccc(C(F)(F)F)c(Cl)c2)NC(=O)CN(C)C(=O)[C@@H]1Cc1ccc(C(F)(F)F)cc1` [PP0448] ([NMeL]IG[Sar][NPrPhe(4-CF3)][Sar][hPhe(3-Cl-4-CF3)][Pro(4,4-Me2)][Ac5c][NMeGly(cPent)][NMeD]-Morpholide; lactam N-11), in experiment [1] (KD ratio NRAS/KRAS, SPR), the “NRAS/KRAS (ratio of KD value with respect to GDP-bound NRAS wild-type protein to KD value with respect to KRAS)” value is “B (a compound having 3 or more and less than 10 is denoted as B)”. For the same compound, in experiment [2] (KD ratio HRAS/KRAS, SPR), the “HRAS/KRAS (ratio of KD value with respect to GDP-bound HRAS wild-type protein to KD value with respect to KRAS)” value was “C (A compound having a KD ratio of 0.1 or more and less than 3 is denoted as C)”.
For the compound `CC[C@H](C)[C@@H]1NC(=O)[C@H](CC(C)C)N(C)C(=O)C[C@@H](C(=O)N2CCOCC2)N(C)C(=O)[C@H](C2CCCC2)N(C)C(=O)C2(CCCC2)NC(=O)[C@@H]2CCCN2C(=O)[C@H](CCc2ccc(C(F)(F)F)c(Cl)c2)NC(=O)CN(C)C(=O)[C@H](Cc2ccc(C(F)(F)F)cc2)N(CCCF)C(=O)[C@@H]2CCN2C(=O)[C@H](C)N(C)C1=O` [PP0525] ([NMeL]I[NMeA][Aze][X47][Sar][hPhe(3-Cl-4-CF3)]P[Ac5c][NMeGly(cPent)][NMeD]-Morpholide; lactam N-11), in experiment [1] (KD ratio NRAS/KRAS, SPR), the “NRAS/KRAS (ratio of KD value with respect to GDP-bound NRAS wild-type protein to KD value with respect to KRAS)” value is “C (A compound having a KD ratio of 0.1 or more and less than 3 is denoted as C)”. Besides, the “HRAS/KRAS (ratio of KD value with respect to GDP-bound HRAS wild-type protein to KD value with respect to KRAS)” value in experiment [2] (KD ratio HRAS/KRAS, SPR) is “B (a compound having 3 or more and less than 10 is denoted as B)”.
`CCCN1C(=O)CN(C)C(=O)CN(C)C(=O)[C@H]([C@@H](C)CC)NC(=O)[C@H](CC(C)C)N(C)C(=O)C[C@@H](C(=O)N2CCOCC2)N(C)C(=O)[C@H](C2CCCC2)N(C)C(=O)[C@](C)(CC(C)C)NC(=O)[C@@H]2CCCN2C(=O)[C@H](CCc2cc(F)c(C(F)(F)F)c(F)c2)NC(=O)CN(C)C(=O)[C@@H]1Cc1ccc(C(F)(F)F)cc1` [PP0759] ([NMeL]I[Sar][Sar][NPrPhe(4-CF3)][Sar][hPhe(3,5-F2-4-CF3)]P[αMeL][NMeGly(cPent)][NMeD]-Morpholide; lactam N-11): in experiment [1] (KD ratio NRAS/KRAS, SPR), the “NRAS/KRAS (ratio of KD value with respect to GDP-bound NRAS wild-type protein to KD value with respect to KRAS)” value was “B (a compound having 3 or more and less than 10 is denoted as B)”. Also, the “HRAS/KRAS (ratio of KD value with respect to GDP-bound HRAS wild-type protein to KD value with respect to KRAS)” value in experiment [2] (KD ratio HRAS/KRAS, SPR) was “B (a compound having 3 or more and less than 10 is denoted as B)”.
With `CCC[C@H]1C(=O)N[C@@H]([C@@H](C)CC)C(=O)N(C2CC2)CC(=O)N(C)[C@H]2C/C=C\CCN(C2=O)[C@@H](Cc2ccc(C(F)(F)F)cc2)C(=O)N(C)CC(=O)N[C@@H](CCc2cc(F)c(C(F)(F)F)c(F)c2)C(=O)N2C[C@H](OCC)C[C@H]2C(=O)NC2(CC(C)(C)C2)C(=O)N(C)[C@@H](CC2CC2)C(=O)N(C)[C@H](C(=O)N(C)C)CC(=O)N1C` [PP2813], the “NRAS/KRAS (ratio of KD value with respect to GDP-bound NRAS wild-type protein to KD value with respect to KRAS)” value in experiment [1] (setting [3]) is “AA (a compound having 20 or more is denoted as AA)”. The “HRAS/KRAS (ratio of KD value with respect to GDP-bound HRAS wild-type protein to KD value with respect to KRAS)” value in experiment [2] (setting [4]) is “A (a compound having 10 or more and less than 20 is denoted as A)”.
As for `CC[C@H](C)[C@@H]1NC(=O)[C@H](CC(F)F)N(C)C(=O)C[C@@H](C(=O)N(C)C)N(C)C(=O)[C@H](C2CCCC2)N(C)C(=O)C2(CC(C)(C)C2)NC(=O)[C@@H]2CC(F)(F)CN2C(=O)[C@H](CCc2cc(F)c(C(F)(F)F)c(F)c2)NC(=O)CN(C)C(=O)[C@H](Cc2ccc(C(F)(F)F)cc2)N2CC/C=C\C[C@@H](C2=O)N(C)C(=O)CN(C)C1=O` [PP1709], the “NRAS/KRAS (ratio of KD value for NRAS to KD value for KRAS)” value in experiment [1] (KD ratio, GDP-bound NRAS wild-type vs GDP-bound KRAS wild-type, SPR) is “A (a compound having 10 or more and less than 20 is denoted as A)”. Further, the “HRAS/KRAS (ratio of KD value for HRAS to KD value for KRAS)” value in experiment [2] (KD ratio, GDP-bound HRAS wild-type vs GDP-bound KRAS wild-type, SPR) was “A (a compound having 10 or more and less than 20 is denoted as A)”.
For the compound `CCO[C@@H]1C[C@H]2C(=O)NC3(CC(C)(C)C3)C(=O)N(C)[C@@H](C3CCCC3)C(=O)N(C)[C@H](C(=O)N(C)C)CC(=O)N(C)[C@H]3CCCCC/C=C/c4ccc(cc4)C[C@@H](C(=O)N(C)CC(=O)N[C@@H](CCc4ccc(Cl)c(Cl)c4)C(=O)N2C1)N1CC/C=C\C[C@@H](C1=O)N(C)C(=O)CN(C)C(=O)[C@H]([C@@H](C)CC)NC3=O` [PP3057], the “NRAS/KRAS (ratio of KD value with respect to GDP-bound NRAS wild-type protein to KD value with respect to KRAS)” value in experiment [1] (KD ratio NRAS/KRAS, SPR, GDP-bound wild-type proteins) is “A (a compound having 10 or more and less than 20 is denoted as A)”. The “HRAS/KRAS (ratio of KD value with respect to GDP-bound HRAS wild-type protein to KD value with respect to KRAS)” value in experiment [2] (KD ratio HRAS/KRAS, SPR, GDP-bound wild-type proteins) is “B (a compound having 3 or more and less than 10 is denoted as B)”.
